Experimental data: patent US12509439B2, “Anti-malarial agents” (UNIVERSITY OF KENTUCKY RESEARCH FOUNDATION, priority 2020, dated 2025)

What was measured:
[1] = system: Plasmodium falciparum (3D7); assay: In-vitro potency against P. falciparum (3D7 strain), SYBR Green growth inhibition; format: cell-based; conditions: P. falciparum 3D7, asexual intraerythrocytic stage, SYBR Green fluorescence
Description: Cultures of the widely-used malaria reference strain of chloroquine-sensitive Plasmodium falciparum (3D7) were maintained in a 1.25% suspension of human red blood cells cultured in RPMI 1640 medium (pH 7.3) supplemented with 0.5% Albumax II (Gibco Life Technologies, San Diego, CA), 12 mM sodium bicarbonate, 0.2 mM hypoxanthine, and 20 mg/L gentamicin at 37° C., in an atmosphere of 1% O2, 3% CO2 with a balance of nitrogen (Human malaria parasites in continuous culture. Trager W et al., 1976, Science, 193: 673-675). Growth inhibition was quantified using a fluorescence assay utilising the binding of SYBR Green (Novel, rapid, and inexpensive cell-based quantification of antimalarial drug efficacy. Bennett T. N. et al., 2004, Antimicrob. Agents Chemother., 48: 1807-1810) to double stranded DNA, which emits a fluorescent signal at 528 nm after excitation at 485 nm. Mefloquine was used as a drug control to monitor the quality of the assay (Z′=0.6 to 0.8, where Z′ is a measure of the discrimination between the positive and negative controls on a screen plate). Hits were confirmed by full-potency curves with dose-response curves determined from a minimum of 3 independent experiments. Compound bioactivity was expressed as EC50, the effective concentration of compound causing 50% parasite death. All data were processed using IDBS ActivityBase. Raw data was converted into percent inhibition through linear regression by setting the high inhibition control as 100% and the no inhibition control as 0%. Quality control criteria for passing plates were as follows: z′>0.5, S:B>3, % CV(no inhibition control)<15. The formula used to calculate z′ is
Curve fitting was carried out using the following 4 parametric equation:
where A=% inhibition at bottom, B=% inhibition at top, C=EC50, D=slope, x=inhibitor concentration and y=% inhibition. If curve definition was poor, B was fixed to 100.

[2] = Microsomal intrinsic clearance, human liver microsomes; format: in vitro ADME; conditions: human liver microsomes (pooled), pH 7.4, 45 min, NADPH
Description: (§1) The compounds of the invention (1 μM) were incubated in suspension with human (rat or mouse) liver microsomes pooled from multiple donors (>10) and samples taken at 5 time points over the course of a 45 min experiment and analysed by LC MS/MS. Microsomes (final protein concentration 0.5 mg/mL), 0.1 M phosphate buffer pH 7.4 and test compound (final substrate concentration 1 μM; final DMSO concentration 0.25%) were pre-incubated at 37° C. prior to the addition of NADPH (final concentration 1 mM) to initiate the reaction. A minus cofactor control incubation was included for each compound tested where 0.1 M phosphate buffer pH 7.4 is added instead of NADPH (minus NADPH). All incubations were performed in duplicate for each test compound and the results averaged. Each compound is incubated for 0, 5, 15, 30 and 45 min. The control (minus NADPH) was incubated for 45 min only. The reactions were stopped by transferring incubate into acetonitrile at the appropriate time points, in a 1:3 ratio.
(§2) The termination plates were centrifuged at 3,000 rpm for 20 min at 4° C. to precipitate the protein. Following protein precipitation, the sample supernatants were combined in cassettes of up to 4 compounds, internal standard added and samples analysed by LC-MS/MS. From a plot of ln peak area ratio (compound peak area/internal standard peak area) against time, the gradient of the line is determined. Subsequently, half-life (t½) and intrinsic clearance (CLint) are calculated using the equations below: Elimination rate constant (k)=(−gradient) Half-life (t1/2)(min)=0.693/k Intrinsic clearance (i.e. CLint)(μL/min/mg protein)=V×0.693/t1/2 where V=Incubation volume (μL)/Microsomal protein (mg)
(§3) Verapamil and dextromethorphan were included in the assay as controls and if the values for these compounds were not within the specified limits the results were rejected and the experiment repeated.

[3] = Microsomal intrinsic clearance, mouse liver microsomes; format: in vitro ADME; conditions: mouse liver microsomes (pooled), pH 7.4, 45 min, NADPH
Description: as §1, §2, §3

[4] = Microsomal intrinsic clearance, rat liver microsomes; format: in vitro ADME; conditions: rat liver microsomes (pooled), pH 7.4, 45 min, NADPH
Description: as §1, §2, §3

[5] = Hepatocyte intrinsic clearance, cryopreserved human hepatocytes; format: in vitro ADME; conditions: cryopreserved human hepatocytes in suspension (pooled), 60 min
Description: The compounds of the invention (3 μM) were incubated in suspension with cryopreserved human (rat or mouse) hepatocytes pooled from multiple donors (>10) and samples taken at 6 time points over the course of a 60 min experiment and analysed by LC MS/MS. Williams E media supplemented with 2 mM L-glutamine and 25 mM HEPES and test compound (final substrate concentration 3 μM; final DMSO concentration 0.25%) were pre-incubated at 37° C. prior to the addition of a suspension of cryopreserved hepatocytes (final cell density 0.5×10^6 viable cells/mL in Williams E media supplemented with 2 mM L glutamine and 25 mM HEPES) to initiate the reaction. The final incubation volume is 500 μL. The reactions are stopped by transferring aliquots of incubate into acetonitrile at the appropriate time points, in a 1:2 ratio. The termination plates are centrifuged at 3,000 rpm for 20 min at 4° C. to precipitate the protein. Following protein precipitation, the sample supernatants were combined in cassettes of up to 4 compounds, internal standard was added and analysed by LC MS/MS. From a plot of ln peak area ratio (compound peak area/internal standard peak area) against time, the gradient of the line was determined. Subsequently, half-life (t½) and intrinsic clearance (CLint) were calculated using the equations below: Elimination rate constant (k)=(−gradient) Half-life (t½) (min)=0.693/k Intrinsic clearance (i.e. CLint) (μL/min/million cells)=V×0.693/t1/2
where V=Incubation volume (μL)/Number of cells
Verapamil and umbelliferone were included in the assay as controls and if the values for these compounds are not within the specified limits the results were rejected and the experiment repeated.

[6] = PK parameters in mouse (IV and PO); format: in vivo; conditions: for PK parameters (mouse): F: 10 mg/kg IV and 10 mg/kg PO; for clearance / half-life: male, Swiss Albino, plasma, IV arm, 10 mg/kg; for clearance: read-out: PK parameters (mouse): Cl; for half-life: read-out: PK parameters (mouse): t1/2
Description: Swiss Albino male mice or Sprague Dawley rats (TCGLS, India) were kept under a 12/12 h light/dark cycle, 22±2° C. temp, 50±20% RH with free access to food and water ad libitum. Mice were selected randomly/based on body weight/age and fasted for 4 h before dosing and until 2 h after dosing. Three mice were used per route of administration. […]
(§4) Blood samples were taken (mice 50 μL, rat 100 μL) at regular timepoints from the saphenous vein (conscious restrained animals) and collected into heparinized capillary tubes and transferred into 0.5 mL microcentrifuge tubes. Samples were processed by centrifugation at 1640 g for 10 min at +4° C. within 30 min of collection and stored at −20° C. until bioanalysis. All samples were mixed with ice-cold acetonitrile containing an internal standard, centrifuged at 4000 rpm for 15 min at 15° C. Supernatant was then half diluted in water and analysed by LCMS/MS analysis to determine analyte peak area/IS peak area (the ratio). Concentration (plasma) of the compounds of the invention was determined by reference to a calibration curve. Pharmacokinetic parameters (Cmax, Tmax, AUC, t1/2, CL, Vd, BA) were calculated using WinNonLin, using non-compartmental analysis (Phoenix, Version 6.3). The pharmacokinetic parameters for compounds shown in Table 2 support that compounds of the invention have pharmacokinetic properties associated with treatment of malaria via the oral route and that compounds have substantially longer half-lives than the reference compound.

[7] = PK parameters in rat (IV and PO); format: in vivo; conditions: for PK parameters (rat): F: 1 mg/kg IV and 3 mg/kg PO; for clearance / half-life: Sprague Dawley, plasma, IV arm, 1 mg/kg; for clearance: read-out: PK parameters (rat): Cl; for half-life: read-out: PK parameters (rat): t1/2
Description: Swiss Albino male mice or Sprague Dawley rats (TCGLS, India) were kept under a 12/12 h light/dark cycle, 22±2° C. temp, 50±20% RH with free access to food and water ad libitum. Mice were selected randomly/based on body weight/age and fasted for 4 h before dosing and until 2 h after dosing. Three mice were used per route of administration. For IV determination (1 mg/kg, dose volume 5 ml/kg) the dose was administered by injection into the lateral tail vein (rats are anaesthetized using 3% v/v isoflurane: oxygen mixture). For PO determination (3 mg/kg, dose volume 10 ml/kg) the dose was administered by oral gavage in conscious animals.
as §4

SMILES | EC50 [1] | microsomal CLint at 1 μM [2] | microsomal CLint at 1 μM [3] | microsomal CLint at 1 μM [4] | hepatocyte CLint at 3 μM [5] | PK parameters (mouse): F [6] | clearance [6] | half-life [6] | PK parameters (rat): F [7] | clearance [7] | half-life [7]
CC(C)Oc1ccc(C2C(C(=O)Nc3ccc(F)c(C#N)c3)c3ccccc3C(=O)N2CC(F)(F)F)cn1 (racemic) [(2), (+, −)-N-(3-cyano-4-fluorophenyl)-3-(6-isopropoxypyridin-3-yl)-1-oxo-2-(2,2,2-trifluoroethyl)-1,2,3,4-tetrahydroisoquinoline-4-carboxamide] | 80 nM | 13 µL/min/mg | – | – | – | – | – | – | – | – | –
N#Cc1cc(NC(=O)[C@H]2c3ccccc3C(=O)N(CC(F)(F)F)[C@@H]2c2ccc(C(F)(F)F)nc2)ccc1F [(3a), (3S,4S)—N-(3-cyano-4-fluorophenyl)-1-oxo-2-(2,2,2-trifluoroethyl)-3-(6-(trifluoromethyl)pyridin-3-yl)-1,2,3,4-tetrahydroisoquinoline-4-carboxamide] | 70 nM | 6 µL/min/mg | < 10 µL/min/mg | < 10 µL/min/mg | < 10 µL/min/1e6 cells | F = 95% | 1.67 mL/min/kg | 11 h | F = 95% | 0.667 mL/min/kg | 11 h
CC(=O)Nc1ccc([C@@H]2[C@@H](C(=O)Nc3ccc(F)c(C#N)c3)c3ccccc3C(=O)N2CC(F)(F)F)cn1 [(5a), (3S,4S)-3-(6-acetamidopyridin-3-yl)-N-(3-cyano-4-fluorophenyl)-1-oxo-2-(2,2,2-trifluoroethyl)-1,2,3,4-tetrahydroisoquinoline-4-carboxamide] | 40 nM | – | – | – | – | – | – | – | – | – | –
N#Cc1cc(NC(=O)[C@H]2c3ccccc3C(=O)N(CC(F)(F)F)[C@@H]2c2ccc(C(F)F)nc2)ccc1F [(8a), (3S,4S)—N-(3-cyano-4-fluorophenyl)-3-(6-(difluoromethyl)pyridin-3-yl)-1-oxo-2-(2,2,2-trifluoroethyl)-1,2,3,4-tetrahydroisoquinoline-4-carboxamide] | 59 nM | < 3 µL/min/mg | < 10 µL/min/mg | – | 4 µL/min/1e6 cells | F = 37% | 3.33 mL/min/kg | 56 h | – | – | –
N#Cc1cc(NC(=O)[C@H]2c3ccccc3C(=O)N(CC(F)(F)F)[C@@H]2c2ccc(OCC(F)(F)F)nc2)ccc1F [(4a), (3S,4S)—N-(3-cyano-4-fluorophenyl)-1-oxo-3-(6-(2,2,2-trifluoroethoxy)pyridin-3-yl)-2-(2,2,2-trifluoroethyl)-1,2,3,4-tetrahydroisoquinoline-4-carboxamide] | 53 nM | < 3 µL/min/mg | < 10 µL/min/mg | < 10 µL/min/mg | < 3 µL/min/1e6 cells | F = 56% | 2.67 mL/min/kg | 41 h | F = 33% | 0.5 mL/min/kg | 85 h
N#Cc1cc(NC(=O)[C@H]2c3ccccc3C(=O)N(CC(F)(F)F)[C@@H]2c2ccc(OC(F)F)nc2)ccc1F [(7a), (3S,4S)—N-(3-cyano-4-fluorophenyl)-3-(6-(difluoromethoxy)pyridin-3-yl)-1-oxo-2-(2,2,2-trifluoroethyl)-1,2,3,4-tetrahydroisoquinoline-4-carboxamide] | 68 nM | < 3 µL/min/mg | < 10 µL/min/mg | – | < 10 µL/min/1e6 cells | F = 108% | 2.67 mL/min/kg | 18 h | F = 108% | 1.5 mL/min/kg | 38 h
N#Cc1ccc([C@@H]2[C@@H](C(=O)Nc3ccc(F)c(C#N)c3)c3ccccc3C(=O)N2CC(F)(F)F)cn1 [(6a), (3S,4S)—N-(3-cyano-4-fluorophenyl)-3-(6-cyanopyridin-3-yl)-1-oxo-2-(2,2,2-trifluoroethyl)-1,2,3,4-tetrahydroisoquinoline-4-carboxamide] | 68 nM | < 3 µL/min/mg | < 10 µL/min/mg | – | < 3 µL/min/1e6 cells | – | – | – | – | – | –
